Assay results as given in paper PMC10721329, “Quisinostat is a brain-penetrant radiosensitizer in glioblastoma” (JCI Insight, 2023).
Values joined by “and” are separate entries in the source; they are usually repeats but may differ in a detail not shown here. Identical values can stand only once. Like-named read-outs stand apart in the source and are kept apart here.

Tests used:
[1] = Plasma pharmacokinetics by route of administration (IP, SC, OG); assay type: in vivo, athymic nude mice; settings: for AUC(0-t): athymic nude (Foxn1nu), single dose 10 mg/kg, athymic nude mice, read-out: AUClast (plasma)
Method: Because the efficacy of QST in preclinical models of brain tumors remains controversial, and because previous studies employed various drug delivery methods, we sought to understand how different routes of administration affect the bioavailability of QST in mice. Three routes of administration were compared to determine the optimal dosing route to obtain the highest plasma exposure to QST over time. We treated athymic nude mice with a single dose of QST (10 mg/kg) through intraperitoneal (IP), subcutaneous (SC), or oral gavage (OG) delivery and collected blood at 0.5, 1, 2, 4, 6, 8, and 24 hours after dosing from individual mice for PK analysis (Figure 5A). […] Therefore, IP delivery was the optimal route of administration to maximize the bioavailability of QST in athymic nude mice.
QST concentrations in specimens were measured using reverse-phase LC on the AB SCIEX QTRAP6500+ LC-MS/MS system by operating electrospray in the positive ion mode. For liquid chromatographic separation, gradient elution was performed using a Phenomenex Kinetex F5 100 Å column (100 × 2.1 mm, 2.6 μm). The initial composition of the mobile phase was 70% phase A (0.1% formic acid in water) and 30% phase B (0.1% formic acid in 1:1 acetonitrile/methanol) with a 0.35 mL/min flow rate. Gradient elution was achieved as follows: mobile phase (B) was maintained at 30% from 0 to 0.3 minutes, increased to 95% from 0.3 to 0.8 minutes, maintained at 95% from 0.8 to 2.5 minutes, and decreased to 30% from 2.5 to 2.8 minutes. The total run time was 3.5 minutes. The internal standard used in this study was D8-infigratinib. The retention times for QST and D8-infigratinib were 1.6 and 1.8 minutes, respectively. Mass-to-charge ratio transitions were as follows: 395.20 → 144.00 (QST) and 568.08 → 321.00 (D8-infigratinib). LC-MS/MS analysis was performed using an Analyst 1.7 Chromatographic Data System. See Supplemental Methods for detailed PK experiments. […]
Preparation of QST for In Vivo Use
For in vivo preparation, QST was dissolved in 50% polyethylene glycol (PEG) 300, 50% sterile water solution for 10 mg/kg dosing. The suspension was then sonicated for 10 minutes to allow the drug to completely dissolve. Finally, the pH of both the drug and the vehicle solutions was adjusted to 7.4 before intraperitoneal dosing.
Determination of Optimal Administration Route
Foxn1nu nude male mice (The Jackson Laboratory) were used to determine the drug administration route that would result in the best QST bioavailability. Three cohorts of mice were treated with a single dose of 10 mg/kg QST delivered through intraperitoneal, subcutaneous, or oral gavage routes (3 mice per cohort). Following administration of the single dose, approximately 30 µL of blood was drawn from the tip of the tails at the following time points: 0.5, 1, 2, 4, 6, 8, and 24 hours. The collected blood was immediately centrifuged at 3000 rpm for 10 minutes at 4 °C to separate plasma, which was subsequently flash frozen. At the 24 - hour time point, following the last blood sample collection, mice were sacrificed and the whole brains from each mouse were dissected and flash-frozen for subsequent analysis. […]
Calibration Standards and Quality Control Samples
Stock solutions of standard (1 mM QST) and IS (250 µM D8-infigratinib) were prepared in acetonitrile. Working solutions for calibration curve standards and quality controls (QCs) were prepared by dilutions with a 40% methanol mixture aqueous solution. The IS precipitation solution (10 nM) was prepared from the IS stock solutions by dilution with methanol. Calibration standards and batch qualifying QCs were freshly spiked for every batch. For sample analysis in human and mouse matrices, calibration standards were prepared in bulk by spiking appropriate amounts of working solutions into blank human plasma, used as a surrogate matrix due to the instability of QST in mouse plasma. For sample analysis in neural stem cell media and cell […]

[2] = Body weight / tolerability in flank tumor study; assay type: in vivo; design: weight of flank tumor mice: unit not given here; settings: for weight of flank tumor mice: individual mice
Method: We next examined whether QST treatment alone or in combination with IR would be effective in slowing tumor growth in a flank model of GBM (U87). Tumor-bearing mice receiving IR were treated with 2-Gy fractions on Monday, Wednesday, and Friday (MWF) 2 hours after dosing with either vehicle solution or QST (10 mg/kg), for a total dose of 6 Gy. Following completion of IR, mice continued to receive vehicle or QST until the tumors reached the maximum volume threshold (Figure 5C). […] The mean tumor volume in mice with combination treatment was approximately 4.5-fold less than that in vehicle-treated mice at study completion (Figure 5D). […]
treated with 2 Gy of ionizing radiation on MWF for a total 6 Gy (3 doses). Ionizing radiation was administered with the RS2000 series biological research irradiator (Rad Source Technologies).
Treatment of Flank-Implanted Mice with QST and/or Radiation
Implanted flank tumors were allowed to grow until the tumor size reached 100 mm3 volume. Mice were randomized into groups before treatment and underwent treatment on MWF for the entire duration of the experiment until the tumor volumes exceeded 2000 mm3. Treatment groups included vehicle (50% PEG-300), QST alone (10 mg/kg), flank IR treatment with vehicle (2 Gy), and flank IR treatment (2 Gy) with QST (10 mg/kg). For mice receiving IR treatment with or without QST, mice were treated with 2 Gy on MWF for a total 6 Gy during the first week of treatment. QST was administered to mice through intraperitoneal injections 2 hours before flank tumor radiation treatment. Upon completion of the radiation regimen, IR-treated mice subsequently received QST or vehicle alone for the rest of the experiment. Tumor growth and treatment response were monitored by manually measuring the tumor area twice per week starting at 13 days after implantation. Upon reaching the tumor volume threshold (2000 mm3), mice were sacrificed, and plasma and tissue samples were harvested for PD and PK analyses 2 hours after treatment with a final dose of QST (10 mg/kg). […]

Cn1cc(CNCC2CCN(c3ncc(C(=O)NO)cn3)CC2)c2ccccc21 [QST, quisinostat]
[QST] in plasma ([1]; IP 10 mg/kg single dose, 0.5 h, individual mice, 10 mg/kg): 347 nmol/L and 1180 nmol/L and 730 nmol/L
[QST] in plasma ([1]; IP 10 mg/kg single dose, 1 h, individual mice, 10 mg/kg): 268 nmol/L and 778 nmol/L and 432 nmol/L
[QST] in plasma ([1]; IP 10 mg/kg single dose, 2 h, individual mice, 10 mg/kg): 70.8 nmol/L and 154 nmol/L and 237 nmol/L
[QST] in plasma ([1]; IP 10 mg/kg single dose, 4 h, individual mice, 10 mg/kg): 22.3 nmol/L and 40.2 nmol/L and 126 nmol/L
[QST] in plasma ([1]; IP 10 mg/kg single dose, 6 h, individual mice, 10 mg/kg): 12.5 nmol/L and 15.1 nmol/L and 47 nmol/L
[QST] in plasma ([1]; IP 10 mg/kg single dose, 8 h, individual mice, 10 mg/kg): 8.68 nmol/L
[QST] in plasma ([1]; IP 10 mg/kg single dose, 24 h, individual mice, 10 mg/kg): 0.963 nmol/L and 0.894 nmol/L
[QST] in plasma ([1]; OG 10 mg/kg single dose, 0.5 h, individual mice): not detectable and 7.12 nmol/L
[QST] in plasma ([1]; OG 10 mg/kg single dose, 1 h, individual mice): not detectable and 4.92 nmol/L
[QST] in plasma ([1]; OG 10 mg/kg single dose, 2 h, individual mice): not detectable and 10.8 nmol/L
[QST] in plasma ([1]; OG 10 mg/kg single dose, 4 h, individual mice): not detectable and 44.7 nmol/L and 3.91 nmol/L
[QST] in plasma ([1]; OG 10 mg/kg single dose, 6 h, individual mice): not detectable and 5.16 nmol/L
[QST] in plasma ([1]; OG 10 mg/kg single dose, 8 h, individual mice): not detectable and 1.29 nmol/L and 4.22 nmol/L
[QST] in plasma ([1]; OG 10 mg/kg single dose, 24 h, individual mice): not detectable and 0.965 nmol/L
[QST] in plasma ([1]; SC 10 mg/kg single dose, 0.5 h, individual mice, 10 mg/kg): 482 nmol/L and 355 nmol/L
[QST] in plasma ([1]; SC 10 mg/kg single dose, 1 h, individual mice, 10 mg/kg): 617 nmol/L and 493 nmol/L
[QST] in plasma ([1]; SC 10 mg/kg single dose, 2 h, individual mice, 10 mg/kg): 169 nmol/L and 281 nmol/L and 430 nmol/L
[QST] in plasma ([1]; SC 10 mg/kg single dose, 4 h, individual mice, 10 mg/kg): 41.6 nmol/L and 61.2 nmol/L and 96.2 nmol/L
[QST] in plasma ([1]; SC 10 mg/kg single dose, 6 h, individual mice, 10 mg/kg): 14.4 nmol/L and 21.7 nmol/L and 34.8 nmol/L
[QST] in plasma ([1]; SC 10 mg/kg single dose, 8 h, individual mice, 10 mg/kg): 7.48 nmol/L and 13.4 nmol/L and 15.5 nmol/L
[QST] in plasma ([1]; SC 10 mg/kg single dose, 24 h, individual mice, 10 mg/kg): 0.909 nmol/L and 0.187 nmol/L and 0.208 nmol/L
concentration at 8 h ([1]; male, Foxn1nu athymic nude, mouse, plasma, ip, 10 mg/kg, IP 10 mg/kg single dose, 8 h, individual mice, read-out: [QST] in plasma): 15.9 nM
concentration at 24 h ([1]; male, Foxn1nu athymic nude, mouse, plasma, ip, 10 mg/kg, IP 10 mg/kg single dose, 24 h, individual mice, read-out: [QST] in plasma): 1.2 nM
concentration at 0.5 h ([1]; male, Foxn1nu athymic nude, mouse, plasma, oral, 10 mg/kg, OG 10 mg/kg single dose, 0.5 h, individual mice, read-out: [QST] in plasma): 8.17 nM
concentration at 1 h ([1]; male, Foxn1nu athymic nude, mouse, plasma, oral, 10 mg/kg, OG 10 mg/kg single dose, 1 h, individual mice, read-out: [QST] in plasma): 7.64 nM
concentration at 2 h ([1]; male, Foxn1nu athymic nude, mouse, plasma, oral, 10 mg/kg, OG 10 mg/kg single dose, 2 h, individual mice, read-out: [QST] in plasma): 8.86 nM
concentration at 6 h ([1]; male, Foxn1nu athymic nude, mouse, plasma, oral, 10 mg/kg, OG 10 mg/kg single dose, 6 h, individual mice, read-out: [QST] in plasma): 4.91 nM
concentration at 24 h ([1]; male, Foxn1nu athymic nude, mouse, plasma, oral, 10 mg/kg, OG 10 mg/kg single dose, 24 h, individual mice, read-out: [QST] in plasma): 0.81 nM
concentration at 0.5 h ([1]; male, Foxn1nu athymic nude, mouse, plasma, sc, 10 mg/kg, SC 10 mg/kg single dose, 0.5 h, individual mice, read-out: [QST] in plasma): 300 nM
concentration at 1 h ([1]; male, Foxn1nu athymic nude, mouse, plasma, sc, 10 mg/kg, SC 10 mg/kg single dose, 1 h, individual mice, read-out: [QST] in plasma): 418 nM
concentration at 8 h ([1]; male, Foxn1nu athymic nude, mouse, plasma, IP 10 mg/kg single dose, 8 h, individual mice, read-out: [QST] in plasma): 25.7 nM
AUC(0-t) ([1]; male, mouse, plasma, oral, OG): 0.106 µM·h
AUC(0-t) ([1]; male, mouse, plasma, IP): 1.2 µM·h
AUC(0-t) ([1]; male, mouse, plasma, SC): 1.19 µM·h
tolerability (mean weights) ([2]; 10 mg/kg IP MWF, alone and in combination with IR, flank tumor study): well tolerated
weight of flank tumor mice ([2]; day 13 post-injection): 29.8
weight of flank tumor mice ([2]; day 22 post-injection): 29.9 (2×) and 27.3 and 29.1 and 26 (2×) and 31.1 and 29.8 and 28 and 28.9
